Results taken from the NIST ThermoML archive (doi:10.1016/j.jct.2017.06.008).

Assays:
[1] = xn = mol fraction of the nth substance listed; settings: 100 kPa, Liquid; for speed of sound: Frequency=3 MHz, Single path-length method; for mass density: Vibrating tube method
[2] = refractive index (Na D-line) (dimensionless); xn = mol fraction of the nth substance listed; settings: 100 kPa, Liquid, Standard Abbe refractometry

CC(=O)CC(C)C [4-methylpentan-2-one] + CC#N
Settings | mass density, 293.15 K [kg/m3] | mass density, 303.15 K [kg/m3] | mass density, 313.15 K [kg/m3] | refractive index, 293.15 K | refractive index, 303.15 K | refractive index, 313.15 K | speed of sound, 293.15 K [m/s] | speed of sound, 303.15 K [m/s] | speed of sound, 313.15 K [m/s]
[1], x1 = 0.102 | 786 | 776 | 765 | – | – | – | 1280.4 | 1239.9 | 1199.1
[1], x1 = 0.1961 | 790 | 779 | 769 | – | – | – | 1267.6 | 1226.3 | 1185.4
[1], x1 = 0.3082 | 792 | 782 | 772 | – | – | – | 1255.2 | 1213.5 | 1172.5
[1], x1 = 0.4019 | 794 | 784 | 774 | – | – | – | 1245.9 | 1204.6 | 1163.8
[1], x1 = 0.5188 | 796 | 787 | 777 | – | – | – | 1237.4 | 1195.8 | 1155
[1], x1 = 0.6001 | 797 | 788 | 778 | – | – | – | 1231.4 | 1190.3 | 1149.7
[1], x1 = 0.7014 | 798 | 789 | 779 | – | – | – | 1225.4 | 1184.5 | 1144
[1], x1 = 0.8008 | 799 | 790 | 780 | – | – | – | 1220.8 | 1179.6 | 1139.3
[1], x1 = 0.8801 | 800 | 791 | 781 | – | – | – | 1216.6 | 1175.9 | 1135.7
[1], x1 = 1 | 801 | 792 | 782 | – | – | – | 1212.3 | 1171.4 | 1131.4
[2], x1 = 0.102 | – | – | – | 1.355 | 1.35 | 1.345 | – | – | –
[2], x1 = 0.1961 | – | – | – | 1.363 | 1.358 | 1.353 | – | – | –
[2], x1 = 0.3082 | – | – | – | 1.371 | 1.366 | 1.361 | – | – | –
[2], x1 = 0.4019 | – | – | – | 1.376 | 1.371 | 1.367 | – | – | –
[2], x1 = 0.5188 | – | – | – | 1.381 | 1.377 | 1.372 | – | – | –
[2], x1 = 0.6001 | – | – | – | 1.385 | 1.38 | 1.375 | – | – | –
[2], x1 = 0.7014 | – | – | – | 1.388 | 1.384 | 1.379 | – | – | –
[2], x1 = 0.8008 | – | – | – | 1.391 | 1.387 | 1.382 | – | – | –
[2], x1 = 0.8801 | – | – | – | 1.393 | 1.389 | 1.384 | – | – | –
[2], x1 = 1 | – | – | – | 1.396 | 1.391 | 1.387 | – | – | –

CC(=O)CC(C)C [4-methylpentan-2-one] + C1CCCCC1
Settings | mass density, 293.15 K [kg/m3] | mass density, 303.15 K [kg/m3] | mass density, 313.15 K [kg/m3] | refractive index, 293.15 K | refractive index, 303.15 K | refractive index, 313.15 K | speed of sound, 293.15 K [m/s] | speed of sound, 303.15 K [m/s] | speed of sound, 313.15 K [m/s]
[1], x1 = 0.0978 | 778 | 769 | 759 | – | – | – | 1260.7 | 1212.6 | 1165.6
[1], x1 = 0.1984 | 780 | 770 | 760 | – | – | – | 1246.9 | 1200 | 1154
[1], x1 = 0.3014 | 781 | 772 | 762 | – | – | – | 1236.2 | 1190.3 | 1145.3
[1], x1 = 0.4007 | 783 | 774 | 764 | – | – | – | 1228.8 | 1183.5 | 1139.2
[1], x1 = 0.5023 | 786 | 776 | 767 | – | – | – | 1222 | 1178 | 1134.6
[1], x1 = 0.6028 | 788 | 779 | 770 | – | – | – | 1217.4 | 1174.2 | 1131.6
[1], x1 = 0.7038 | 791 | 782 | 773 | – | – | – | 1214.2 | 1171.8 | 1129.9
[1], x1 = 0.8062 | 794 | 785 | 776 | – | – | – | 1212.1 | 1170.4 | 1129.2
[1], x1 = 0.9004 | 797 | 788 | 779 | – | – | – | 1211.3 | 1170.2 | 1129.6
[1], x1 = 1 | 801 | 792 | 782 | – | – | – | 1212.3 | 1171.4 | 1131.4
[2], x1 = 0.0978 | – | – | – | 1.421 | 1.416 | 1.411 | – | – | –
[2], x1 = 0.1984 | – | – | – | 1.417 | 1.412 | 1.406 | – | – | –
[2], x1 = 0.3014 | – | – | – | 1.413 | 1.408 | 1.403 | – | – | –
[2], x1 = 0.4007 | – | – | – | 1.41 | 1.405 | 1.4 | – | – | –
[2], x1 = 0.5023 | – | – | – | 1.407 | 1.402 | 1.397 | – | – | –
[2], x1 = 0.6028 | – | – | – | 1.404 | 1.399 | 1.394 | – | – | –
[2], x1 = 0.7038 | – | – | – | 1.402 | 1.397 | 1.392 | – | – | –
[2], x1 = 0.8062 | – | – | – | 1.399 | 1.395 | 1.39 | – | – | –
[2], x1 = 0.9004 | – | – | – | 1.398 | 1.393 | 1.388 | – | – | –
[2], x1 = 1 | – | – | – | 1.396 | 1.391 | 1.387 | – | – | –

CC(=O)CC(C)C [4-methylpentan-2-one] + CC(C)=O
Settings | mass density, 293.15 K [kg/m3] | mass density, 303.15 K [kg/m3] | mass density, 313.15 K [kg/m3] | refractive index, 293.15 K | refractive index, 303.15 K | refractive index, 313.15 K | speed of sound, 293.15 K [m/s] | speed of sound, 303.15 K [m/s] | speed of sound, 313.15 K [m/s]
[1], x1 = 0.1004 | 791 | 780 | 769 | – | – | – | 1185.7 | 1140.9 | 1096.8
[1], x1 = 0.1992 | 793 | 782 | 771 | – | – | – | 1186.8 | 1143 | 1099.4
[1], x1 = 0.3012 | 794 | 783 | 773 | – | – | – | 1189.2 | 1145.9 | 1102.9
[1], x1 = 0.396 | 795 | 785 | 774 | – | – | – | 1191.8 | 1149 | 1106.4
[1], x1 = 0.5005 | 796 | 786 | 776 | – | – | – | 1194.8 | 1152.4 | 1110.4
[1], x1 = 0.6912 | 798 | 788 | 779 | – | – | – | 1201.1 | 1159.5 | 1118.3
[1], x1 = 0.7996 | 799 | 790 | 780 | – | – | – | 1205.2 | 1163.6 | 1122.9
[1], x1 = 0.8992 | 799 | 791 | 781 | – | – | – | 1208 | 1167.2 | 1126.9
[1], x1 = 1 | 800 | 792 | 782 | – | – | – | 1212.3 | 1171.4 | 1131.4
[2], x1 = 0.1004 | – | – | – | 1.365 | 1.359 | 1.354 | – | – | –
[2], x1 = 0.1992 | – | – | – | 1.37 | 1.364 | 1.359 | – | – | –
[2], x1 = 0.3012 | – | – | – | 1.374 | 1.369 | 1.365 | – | – | –
[2], x1 = 0.396 | – | – | – | 1.378 | 1.373 | 1.368 | – | – | –
[2], x1 = 0.5005 | – | – | – | 1.382 | 1.377 | 1.372 | – | – | –
[2], x1 = 0.6912 | – | – | – | 1.388 | 1.383 | 1.379 | – | – | –
[2], x1 = 0.7996 | – | – | – | 1.391 | 1.386 | 1.382 | – | – | –
[2], x1 = 0.8992 | – | – | – | 1.394 | 1.389 | 1.384 | – | – | –
[2], x1 = 1 | – | – | – | 1.396 | 1.391 | 1.387 | – | – | –

CC(=O)CC(C)C [4-methylpentan-2-one] + C[S+](C)[O-]
Settings | mass density, 293.15 K [kg/m3] | mass density, 303.15 K [kg/m3] | mass density, 313.15 K [kg/m3] | refractive index, 293.15 K | refractive index, 303.15 K | refractive index, 313.15 K | speed of sound, 293.15 K [m/s] | speed of sound, 303.15 K [m/s] | speed of sound, 313.15 K [m/s]
[1], x1 = 0.1002 | 1052 | 1043 | 1033 | – | – | – | 1453.8 | 1418.9 | 1384.7
[1], x1 = 0.2004 | 1010 | 1001 | 991 | – | – | – | 1409.2 | 1373.8 | 1339.2
[1], x1 = 0.3004 | 973 | 964 | 954 | – | – | – | 1371.9 | 1336 | 1300.8
[1], x1 = 0.4007 | 940 | 931 | 921 | – | – | – | 1338.7 | 1302.9 | 1267.1
[1], x1 = 0.4982 | 912 | 902 | 893 | – | – | – | 1311.8 | 1275.3 | 1238.9
[1], x1 = 0.5999 | 885 | 875 | 866 | – | – | – | 1287.1 | 1249.8 | 1212.7
[1], x1 = 0.6992 | 861 | 851 | 842 | – | – | – | 1266.1 | 1227.9 | 1190
[1], x1 = 0.7995 | 839 | 830 | 820 | – | – | – | 1246.5 | 1207.5 | 1168.9
[1], x1 = 0.8981 | 819 | 810 | 801 | – | – | – | 1229.3 | 1189.2 | 1149.9
[1], x1 = 1 | 801 | 792 | 782 | – | – | – | 1212.3 | 1171.4 | 1131.4
[2], x1 = 0.1002 | – | – | – | 1.466 | 1.462 | 1.458 | – | – | –
[2], x1 = 0.2004 | – | – | – | 1.455 | 1.451 | 1.446 | – | – | –
[2], x1 = 0.3004 | – | – | – | 1.445 | 1.441 | 1.436 | – | – | –
[2], x1 = 0.4007 | – | – | – | 1.436 | 1.432 | 1.427 | – | – | –
[2], x1 = 0.4982 | – | – | – | 1.428 | 1.423 | 1.419 | – | – | –
[2], x1 = 0.5999 | – | – | – | 1.42 | 1.416 | 1.411 | – | – | –
[2], x1 = 0.6992 | – | – | – | 1.413 | 1.409 | 1.404 | – | – | –
[2], x1 = 0.7995 | – | – | – | 1.407 | 1.402 | 1.398 | – | – | –
[2], x1 = 0.8981 | – | – | – | 1.401 | 1.397 | 1.392 | – | – | –
[2], x1 = 1 | – | – | – | 1.396 | 1.391 | 1.387 | – | – | –
